Experimental data reported in PMC10059756, “New Thienobenzo/Naphtho-Triazoles as Butyrylcholinesterase Inhibitors: Design, Synthesis and Computational Study” (International Journal of Molecular Sciences, 2023).

Key:
[1] = molecular target: AChE (EC 3.1.1.7, Electrophorus electricus) (Electrophorus electricus, UniProt O42275); assay: biochemical; type: biochemical; settings: for IC50: Ellman's method, 5 min pre-incubation at 4 °C, triplicate
[2] = molecular target: BChE (EC 3.1.1.8, equine serum) (Equus caballus, UniProt P81908); assay: biochemical; type: biochemical; settings: for IC50: Ellman's method, 5 min pre-incubation at 4 °C, triplicate
Chain of BChE (EC 3.1.1.8, equine serum) (P81908 whole entry): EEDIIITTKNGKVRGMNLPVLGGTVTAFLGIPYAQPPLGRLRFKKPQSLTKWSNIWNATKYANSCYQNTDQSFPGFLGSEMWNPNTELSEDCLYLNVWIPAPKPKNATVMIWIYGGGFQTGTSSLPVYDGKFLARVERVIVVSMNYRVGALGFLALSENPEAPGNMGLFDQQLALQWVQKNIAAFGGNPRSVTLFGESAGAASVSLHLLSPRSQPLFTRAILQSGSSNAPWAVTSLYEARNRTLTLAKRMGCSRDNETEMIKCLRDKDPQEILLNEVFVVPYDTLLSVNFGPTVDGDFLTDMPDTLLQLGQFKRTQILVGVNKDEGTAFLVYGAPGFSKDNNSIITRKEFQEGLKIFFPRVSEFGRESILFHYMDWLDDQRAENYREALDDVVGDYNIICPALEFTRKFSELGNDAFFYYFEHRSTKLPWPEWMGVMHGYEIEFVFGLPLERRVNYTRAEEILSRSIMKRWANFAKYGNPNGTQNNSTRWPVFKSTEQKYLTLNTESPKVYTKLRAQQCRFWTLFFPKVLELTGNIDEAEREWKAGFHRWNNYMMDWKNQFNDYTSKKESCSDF

TNFα production = settings: cited from earlier work; for anti-inflammatory activity: previous series
BChE = test system: BChE; design: method as in PMID 35870364, PMID 35228009; settings: previous research; cited from earlier work

Chain of AChE (EC 3.1.1.7, Electrophorus electricus) (O42275 24-633): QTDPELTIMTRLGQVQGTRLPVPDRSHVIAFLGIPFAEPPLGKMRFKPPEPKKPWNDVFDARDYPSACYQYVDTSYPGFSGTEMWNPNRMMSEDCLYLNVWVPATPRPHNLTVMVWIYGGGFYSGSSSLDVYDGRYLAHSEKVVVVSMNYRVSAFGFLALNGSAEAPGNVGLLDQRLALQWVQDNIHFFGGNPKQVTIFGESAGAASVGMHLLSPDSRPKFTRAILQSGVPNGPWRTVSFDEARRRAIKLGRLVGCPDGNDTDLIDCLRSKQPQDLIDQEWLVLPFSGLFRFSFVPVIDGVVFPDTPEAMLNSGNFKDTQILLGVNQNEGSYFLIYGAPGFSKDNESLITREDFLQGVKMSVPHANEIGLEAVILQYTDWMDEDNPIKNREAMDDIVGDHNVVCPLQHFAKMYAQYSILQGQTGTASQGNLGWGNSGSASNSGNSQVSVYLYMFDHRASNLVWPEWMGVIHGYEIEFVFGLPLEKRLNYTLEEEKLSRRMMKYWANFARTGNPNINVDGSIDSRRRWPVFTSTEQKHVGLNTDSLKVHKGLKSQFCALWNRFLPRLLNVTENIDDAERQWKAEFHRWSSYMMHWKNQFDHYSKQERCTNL

Structure (SMILES)	IC50 [1] [µM]	IC50 [2] [µM]	also measured
FC(F)(F)Oc1ccc(Cn2nnc3c2-c2ccsc2CC3)cc1 [Compound 15, 1-(4-(trifluoromethoxy)benzyl)-4,5-dihydro-1H-thieno[3′,2′:3,4]benzo[1,2-d][1,2,3]triazole]	88.7		
c1csc(Cn2nnc3ccc4sccc4c32)c1 [Compound 5, 1-(thiophen-2-ylmethyl)-1H-thieno[3′,2′:3,4]benzo[1,2-d][1,2,3]triazole]	119	23.4	
OCCCCn1nnc2ccc3sccc3c21 [Compound 12, 4-(1H-thieno[3′,2′:3,4]benzo[1,2-d][1,2,3]triazol-1-yl)butan-1-ol]		107	
COc1ccc(CCn2nnc3ccc4sccc4c32)cc1 [Compound 9, 1-(4-methoxyphenethyl)-1H-thieno[3′,2′:3,4]benzo[1,2-d][1,2,3]triazole]		18.6	
Fc1ccc(Cn2nnc3ccc4sccc4c32)cc1 [Compound 4, 1-(4-fluorobenzyl)-1H-thieno[3′,2′:3,4]benzo[1,2-d][1,2,3]triazole]	97	37.5	
c1cc2c(s1)CCc1nnn(CCN3CCOCC3)c1-2 [Compound 17, 4-(2-(4,5-dihydro-1H-thieno[3′,2′:3,4]benzo[1,2-d][1,2,3]triazol-1-yl)ethyl)morpholine]	45.6		
CC(C)n1nnc2ccc3ccc(Cl)cc3c21 [Compound 1]	59.9	39.6	anti-inflammatory activity (TNFα production): ten times weaker anti-inflammatory activity than 2
Fc1ccc(Cn2nnc3c2-c2ccsc2CC3)cc1 [Compound 13, 1-(4-fluorobenzyl)-4,5-dihydro-1H-thieno[3′,2′:3,4]benzo[1,2-d][1,2,3]triazole]		58	
CCOC(=O)CCn1nnc2ccc3sccc3c21 [Compound 6, Ethyl 3-(1H-thieno[3′,2′:3,4]benzo[1,2-d][1,2,3]triazol-1-yl)propanoate]		39.6	
FC(F)(F)c1ccc(Cn2nnc3ccc4sccc4c32)cc1 [Compound 7, 1-(4-(trifluoromethyl)benzyl)-1H-thieno[3′,2′:3,4]benzo[1,2-d][1,2,3]triazole]	140	> 150	
FC(F)(F)Oc1ccc(Cn2nnc3ccc4sccc4c32)cc1 [Compound 8, 1-(4-(trifluoromethoxy)benzyl)-1H-thieno[3′,2′:3,4]benzo[1,2-d][1,2,3]triazole]	68	214	
COc1ccc(Cn2nnc3ccc4ccc(OC)cc4c32)cc1 [Compound 2]			inhibitory activity toward AChE (in words) ([1]; final concentrations 10–500 μM): no inhibitory activity; anti-inflammatory activity (TNFα production): best anti-inflammatory activity of all the tested compounds; inhibitory activity toward BChE (in words) ([2]; final concentrations 10–500 μM): no inhibitory activity
C=CCn1nnc2ccc3sccc3c21 [structure C, reference compound]			TNFα production inhibition (TNFα production; LPS-stimulated human PBMCs): good TNFα production inhibition; IC50 (BChE): 3.8 µM
FC(F)(F)c1ccc(Cn2nnc3c2-c2ccsc2CC3)cc1 [Compound 14, 1-(4-(trifluoromethyl)benzyl)-4,5-dihydro-1H-thieno[3′,2′:3,4]benzo[1,2-d][1,2,3]triazole]	118	> 150	
OCCCCn1nnc2c1-c1ccsc1CC2 [Compound 19, 4-(4,5-dihydro-1H-thieno[3′,2′:3,4]benzo[1,2-d][1,2,3]triazol-1-yl)butan-1-ol]		74.1	
COc1ccc2c3c1O[C@H]1C[C@@H](O)C=C[C@@]31CCN(C)C2 [Galantamine, galantamine]			IC50 (BChE): 7.9 µM
COc1ccc(Cn2nnc3ccc4sccc4c32)cc1 [Compound 3, 1-(4-methoxybenzyl)-1H-thieno[3′,2′:3,4]benzo[1,2-d][1,2,3]triazole]	116	25.5	
COc1ccc(CCn2nnc3c2-c2ccsc2CC3)cc1 [Compound 16]	145	119	
